In patent US6531143B1, “α-hydroxy fatty acid derivatives and external compositions containing the same” (Kanebo, Limited, priority 1998, dated 2003):
Like-named read-outs stand apart in the source and are kept apart here.

Experiments:
[1] = tested on: skin (facies medialis brachii of 20 subjects); conditions: in vivo
Method: (§1) As the safety test, irritation to the skin was examined by the following method. Each sample of the alpha-hydroxy fatty acid derivatives obtained in the Examples prepared by dissolving in olive oil in the concentration of 50 wt % and an adhesive plaster for patch test was impregnated with 1 ml of the sample. The adhesive plaster was put on the facies medialis brachii of 20 subjects for 24 hours. Irritation was evaluated 24 hours after removing the patch.

[2] = tested on: skin (facies medialis brachii of 20 subjects); assay: Safety test: irritation to the skin, 24 h patch test; conditions: 50 wt % in olive oil, 1 ml on adhesive plaster, 24 hours on facies medialis brachii, evaluated 24 hours after removing the patch, subjects with clear erythema
Method: as §1

| Compound | Positive percentage [1] | melting point | Positive percentage [2] |
| --- | --- | --- | --- |
| CCCCCCCCCCCCCCCCOC(=O)C(CCCCCCCCCCCCCC)OC(C)=O (stereo not shown) [2-acetyloxypalmitic acid palmityl ester] |  | 35.1 °C | 0% |
| CCCCCCCCCCCCCCCCC(OC(C)=O)C(=O)OCCCCCCCCCCCCCCCCCC(C)C (stereo not shown) [2-acetyloxystearic acid-(18)-methylnonadecanyl ester] |  |  | 0% |
| CCCCCCCCCCCCC(OC(=O)C(C)C)C(=O)OCCCCCCCCCCCCCCCCCC(C)CC (stereo not shown) [2-isobutyryloxymyristic acid-(18)-methylicosanyl ester] |  |  | 0% |
| CCCCCCCCCCCCOC(=O)C(CCCCCCCCCC)OC(=O)CC(C)C (stereo not shown) [2-isovaleryloxylauric acid lauryl ester] |  |  | 0% |

The next lines start with results.

| Positive percentage [1] | melting point | Compound | Positive percentage [2] |
| --- | --- | --- | --- |
| 0% |  | 2-long-chain branched fatty acid (12-31) oxypalmitic acid palmityl ester |  |
|  | 28.3 °C | CCCCCCCCCCCCCCCCOC(=O)C(CCCCCCCCCCCCCC)OC(=O)C(C)C (stereo not shown) [2-isobutyryloxypalmitic acid palmityl ester] | 0% |
|  | 52.5 °C | CCCCCCCCCCCCCCCCOC(=O)C(CCCCCCCCCCCCCC)OC(=O)CCCCCCCCCCCCCCC (stereo not shown) [2-palmitoyloxypalmitic acid palmityl ester] | 0% |
